Here are results for 9 compounds from ChEMBL document CHEMBL1131827, “Ring E analogs of methyllycaconitine (MLA) as novel nicotinic antagonists” (Bioorg Med Chem Lett, 1999).

The structures appear in SMILES notation.

Sequence of Chromaffin cell neuronal nicotinic acetylcholine receptor (Bos taurus) (P54131 whole entry, looked up): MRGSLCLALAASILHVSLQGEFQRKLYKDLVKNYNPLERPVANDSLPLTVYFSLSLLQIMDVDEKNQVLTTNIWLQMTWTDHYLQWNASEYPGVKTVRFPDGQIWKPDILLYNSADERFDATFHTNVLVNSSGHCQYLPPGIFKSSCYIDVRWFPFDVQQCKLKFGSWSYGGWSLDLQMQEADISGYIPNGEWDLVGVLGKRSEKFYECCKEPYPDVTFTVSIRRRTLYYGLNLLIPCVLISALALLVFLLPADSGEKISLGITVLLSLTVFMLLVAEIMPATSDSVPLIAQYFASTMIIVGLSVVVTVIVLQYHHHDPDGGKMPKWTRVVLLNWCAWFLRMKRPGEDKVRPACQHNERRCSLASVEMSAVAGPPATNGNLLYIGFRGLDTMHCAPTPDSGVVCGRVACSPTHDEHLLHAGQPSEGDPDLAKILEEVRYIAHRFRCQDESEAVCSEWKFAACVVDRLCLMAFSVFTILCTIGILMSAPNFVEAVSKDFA
Sequence of Chromaffin cell neuronal nicotinic acetylcholine receptor (Bos taurus) (Q07263 whole entry, looked up): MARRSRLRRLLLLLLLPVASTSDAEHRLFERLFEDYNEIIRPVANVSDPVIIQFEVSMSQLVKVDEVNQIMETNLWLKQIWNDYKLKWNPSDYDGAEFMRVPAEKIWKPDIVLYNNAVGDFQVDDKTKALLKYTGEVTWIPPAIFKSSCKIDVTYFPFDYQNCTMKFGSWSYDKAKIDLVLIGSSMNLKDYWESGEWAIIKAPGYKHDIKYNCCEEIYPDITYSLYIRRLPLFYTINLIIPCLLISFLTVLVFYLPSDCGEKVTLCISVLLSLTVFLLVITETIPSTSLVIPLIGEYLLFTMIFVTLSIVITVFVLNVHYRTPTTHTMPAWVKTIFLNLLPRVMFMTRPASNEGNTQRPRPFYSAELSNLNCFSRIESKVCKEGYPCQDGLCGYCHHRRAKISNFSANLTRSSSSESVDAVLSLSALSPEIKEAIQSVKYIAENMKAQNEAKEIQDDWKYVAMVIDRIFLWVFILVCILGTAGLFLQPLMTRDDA
Sequence of Chromaffin cell neuronal nicotinic acetylcholine receptor (Bos taurus) (Q8SPU6 whole entry, looked up): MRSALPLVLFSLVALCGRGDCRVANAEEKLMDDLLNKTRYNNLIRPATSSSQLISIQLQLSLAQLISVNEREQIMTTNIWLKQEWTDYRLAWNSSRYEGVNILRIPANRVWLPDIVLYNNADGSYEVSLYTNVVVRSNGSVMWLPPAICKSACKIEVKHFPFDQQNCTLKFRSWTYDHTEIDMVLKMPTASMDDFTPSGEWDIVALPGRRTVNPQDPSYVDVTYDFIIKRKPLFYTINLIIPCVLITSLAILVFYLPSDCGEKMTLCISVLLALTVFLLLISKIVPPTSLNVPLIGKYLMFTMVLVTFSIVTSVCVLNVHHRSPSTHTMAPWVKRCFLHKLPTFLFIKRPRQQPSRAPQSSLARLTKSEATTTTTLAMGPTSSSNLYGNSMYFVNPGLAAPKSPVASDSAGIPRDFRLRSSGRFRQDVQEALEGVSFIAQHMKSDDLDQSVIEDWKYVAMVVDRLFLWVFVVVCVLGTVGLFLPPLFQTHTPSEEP

The experiment has as its target Chromaffin cell neuronal nicotinic acetylcholine receptor (Bos taurus) (UniProt Q8SPU6+Q07263+P54131). Kind of experiment: Antagonist activity was determined by inhibition of neuronal nicotine acetylcholine receptor (nAChR)-stimulated catecholamine release in cultured bovine adrenal chromaffin cells. Particulars: concentration not given here. The class given is functional. On the set-up: concentration or dose not given beside the values.
One may read the inhibition as the percentage by which the read-out fell short of the control. `CC1CC(=O)N(c2ccccc2C(=O)OCC2CCCN(CCCc3ccccc3)C2)C1=O` (centres undefined) came in with an inhibition of 86.3%.
As to `CC1CC(=O)N(c2ccccc2C(=O)OCC2CCCN(C)C2)C1=O` (centres undefined), the inhibition was 30.1%.
The figure for `CC1CC(=O)N(c2ccccc2C(=O)OCC2CCCN(C(C)C)C2)C1=O` (centres undefined) is 56.5%; for `CCOCCN1CCCC(COC(=O)c2ccccc2N2C(=O)CC(C)C2=O)C1` (centres undefined) it is 45.9%; for `CC(C)N1CCCC(COC(=O)c2ccccc2N2C(=O)CCC2=O)C1` (centres undefined) it is 36.4%.
The figure for `CC1CC(=O)N(c2ccccc2C(=O)OCC2CCCN(CCc3ccccc3)C2)C1=O` (centres undefined) is 37%; for `CCN1C[C@]2(COC(=O)c3ccccc3N3C(=O)C[C@H](C)C3=O)CC[C@H](OC)[C@@]34[C@@H]5C[C@H]6[C@H](OC)[C@@H]5[C@](O)(C[C@@H]6OC)[C@](O)([C@@H](OC)[C@H]23)[C@@H]14` it is 95.2%.
The same measure for `CCCCN1CCCC(COC(=O)c2ccccc2N2C(=O)CCC2=O)C1` (centres undefined): 38.4%; for `CCN1CCCC(COC(=O)c2ccccc2N2C(=O)CC(C)C2=O)C1` (centres undefined): 33.5%.
